Laboratory results taken from patent US6677433B2 (The Regents of the University of California, priority 2001, dated 2004).
Where two headings read alike, the source gives them in different places.

B1: α-lactalbumin: purified milk allergen (protein, UniProt P00711 20-142, looked up)
Alpha-lactalbumin: EQLTKCEVFRELKDLKGYGGVSLPEWVCTTFHTSGYDTQAIVQNNDSTEYGLFQINNKIWCKDDQNPHSSNICNISCDKFLDDDLTDDIMCVKKILDKVGINYWLAHKALCSEKLDQWLCEKL
B2: Glutaredoxin: E. coli glutaredoxin with glutathione reductase, glutathione and NADPH (protein, UniProt P68688 1-85, looked up)
Glutaredoxin 1: MQTVIFGRSGCPYCVRAKDLAEKLSNERDDFQYQYVDIRAEGITKEDLQQKAGKPVETVPQIFVDQQHIGGYTDFAAWVKENLDA
modifications: with glutathione reductase, glutathione, NADPH

Key:
Gliadins = experiment: Reductant specificity of gliadins (mBBr, native gel, densitometer); format: biochemical, durum wheat; set-up: Gliadin, % Relative Reduction, α / Gliadin, % Relative Reduction, β / Gliadin, % Relative Reduction, γ: concentration or dose not given beside the values; details: Thioredoxin = 100
Experimental: (§1) For isolation of insoluble storage proteins, semolina (0.2 g) was extracted sequentially with 1 ml of the following solutions for the indicated times at 25° C.; (1) 50 mM Tris-HCl, pH 7.5 (20 min); (2) 70% ethanol (2 hr); and (3) 0.1 M acetic acid (2 hr). During extraction, samples were placed on an electrical rotator and, in addition, occasionally agitated with a vortex mixer. After extraction with each solvent, samples were centrifuged (12,000 rpm for 5 min) in an Eppendorf microfuge and, supernatant fractions were saved for analysis. In between each extraction, pellets were washed with 1 ml of water, collected by centrifugation as before and the supernatant wash fractions were discarded. By convention, the fractions are designated: (1) albumin/globulin; (2) gliadin; and (3) glutenin.
(§2) Reactions were carried out in 100 mM Tris-HCl buffer, pH 7.9. As indicated, 0.7 μg NTR and 1 μg thioredoxin (both from E. coli unless specified otherwise) were added to 70 μl of this buffer containing 1 mM NADPH and 10 μg of target protein.
To resolve the different types of gliadins, native polyacrylamide gel electrophoresis was performed in 6% gels (a procedure designed to separate gliadins into the four types) as described by Bushuk and Zillman (Bushuk, W. et al. (1978), Can. J. Plant Sci. 58:505-515) and modified for vertical slab gels by Sapirstein and Bushuk (Sapirstein, H. D. et al. (1985), Cereal Chem. 62:372-377). A gel solution in 100 ml final volume contained 6.0 g acrylamide, 0.3 g bisacrylamide, 0.024 g ascorbic acid, 0.2 mg ferrous sulfate heptahydrate and 0.25 g aluminum lactate. The pH was adjusted to 3.1 with lactic acid. The gel solution was degassed for 2 hr. on ice and then 0.5 ml of 3% hydrogen peroxide was added as a polymerization catalyst. The running buffer, also adjusted to pH 3.1 with lactic acid, contained 0.5 g aluminum lactate per liter. Duration of electrophoresis was approximately 4 hr., with a constant current of 50 mA. Electrophoresis was terminated when the solvent front, marked with methyl green tracking dye, migrated to about 1 cm from the end of the gel.
(§3) The Polaroid negatives of fluorescent gels and prints of wet protein stained gels were scanned with a laser densitometer (Pharmacia-LKB UltroScan XL). Fluorescence was quantified by evaluating peak areas after integration with GelScan XL software.
The gliadin fraction is made up of four different protein types, designated α, β, γ and ω, which can be separated by native polyacrylamide gel electrophoresis under acidic conditions (Bushuk, W. et al. (1978), Can. J. Plant Sci. 58:505-515; Kasarda, D. D. et al. (1976), Adv. Cer. Sci. Tech. 1:158-236; Sapirstein, H. D. et al. (1985), Cereal Chem. 62:372-377; and Tatham, A. S. et al. (1990), Adv. Cer. Sci. Tech. 10:1-78). Except for the ω) gliadins, each species contains cystine (S—S) groups and thus has the potential for reduction by thioredoxin. In this study, following incubation with the indicated additions, proteins were derivatized with mBBr, and fluorescence was visualized after acidic-polyacrylamide gel electrophoresis. The lanes in the second gliadin gel in this study were as follows: 1. Control: no addition. 2. GSH: reduced glutathione. 3. GSH/GR/NADPH: reduced glutathione, glutathione reductase (from spinach leaves) and NADPH. 4. NGS: NADPH, reduced glutathione, glutathione reductase (from spinach leaves) and glutaredoxin (from E. coli). 5. NGS+NTS: combination of 4 and 6. 6. NTS: NADPH, NTR, and thioredoxin (both proteins from E. coli). 7. MET/T(Ec): β-mercaptoethanol and thioredoxin (E. coli). 8. DTT/T(Ec): DTT and thioredoxin (E. coli). 9. NTS(−T): same as 6 except without thioredoxin. 10. NGS+NTS,-Gliadin: same as 5 except without the gliadin fraction.

egg white proteins = experiment: Reduction of egg white proteins (mBBr/SDS-PAGE); format: biochemical, chicken; details: 1 hr at room temperature
Experimental: Dried chicken egg white was purchased from Sigma Chemical Co. About 80% of the total proteins in egg white are allergens. A solution of 20 mg/ml egg white was resuspended in PBS. Since not all the material was dissolved, it was centrifuged at 14,000 RPM for 2 min. The soluble egg white proteins were used for the reduction study using mBBr fluorescent labelling and SDS-polyacrylamide gel electrophoresis analysis. The treatments used were the control (no reductant), NTS, DTT plus thioredoxin, reduced glutathione (GSH) and reduced glutathione/glutathione reductase/NADPH. Reactions were carried out in PBS with 23 microliters of the soluble proteins from the 20 mg/ml egg white suspension in a final volume of 100 microliters. In the NTS, 7.5 mM NADPH, 2.4 micrograms thioredoxin and 2.1 micrograms NTR were used. When thioredoxin was reduced by DTT, NADPH and NTR were omitted and DTT was added to 1.5 mM. The GSH concentration used was 3 mM. For reduction by the GSH/GR/NADPH system, 3 mM GSH, 4 micrograms GR and 7.5 mM NADPH were used. The mixture was incubated for 1 hr at room temperature. After incubation, 7 microliters of 80 mM mBBr was added and the reaction continued for 15 min at room temperature. […] Samples were then analyzed by SDS-polyacrylamide gel electrophoresis.

Glutenins = experiment: Reductant specificity of glutenins (mBBr/SDS-PAGE, densitometer); format: biochemical, durum wheat; set-up: concentration or dose not given beside the values
Experimental: as §1, §2
SDS-polyacrylamide electrophoresis of the mBBr-derivatized samples was performed in 15% gels at pH 8.5 as described by Laemmli, U.K. (1970), Nature 227:680-685. Gels of 1.5 mm thickness were developed for 16 hr. at a constant current of 9 mA.
as §3

castor seed 2S protein = format: biochemical, Ricinus communis
pepsin = experiment: Pepsin assay in simulated gastric fluid; format: in vitro ADME, porcine; details: thioredoxin-reduced form in milk, SGF 37° C.
Experimental: BLG, 640 μg, or milk, 1 mg protein (i.e., about 30 μl), was incubated with or without the thioredoxin system (NTS) at either 4° C. […] The BLG, 320 μg, or milk, 500 μg protein, was then treated in 200 μl of simulated gastric fluid (SGF) as described by Astwood, J. D. et al. (1996), “Stability of food allergens to digestion in vitro”, Nature Biotechnol. 14:1269-1273. SGF consists of 0.32% pepsin (w/v) and 30 mM NaCl adjusted at pH 1.2 with HCl (Board of Trustees (ed.) 1995, Simulated Gastric Fluid, TS., pp. 2053 in the United States Pharmacopeia 23, The National Formulary 18. United States Pharmacopeial Convention, Inc. Rockville, Md.). The reaction mixture was incubated at 37° C. and stopped by adding 0.375-fold volume of 160 mM Na2CO3 (ca. pH 7) after 0, 0.25, 1, 2, 4, 8, 15, 30 and 60 min incubation. The protein mixture was then subjected to SDS-PAGE (15% gels) and stained for protein with Coomassie blue as described below. As indicated, the allergenicity of the digested samples was determined by skin test analysis.

atopic dogs = experiment: Feeding challenges with BLG, upper GI index; format: in vivo, dog
Experimental: Reduction of 80% pure BLG (a mixture of the A and B forms) was carried out for each dog in 100 ml of water. Each gram of BLG was treated by adding an aqueous mixture of 104 mg of NADPH, 1 mg of E. coli thioredoxin and 1 mg of E. coli NTR. The reactions occurred in a shaker at 125 rpm at 37° C. for 45 min. Samples were stored overnight at 4° C. The following day untreated (control) or treated BLG, 2.5 gm was mixed with a 12 oz. can of P/D food (Hills) and fed to a dog. Unchallenged animals received dog food alone without BLG while control animals received dog food with untreated BLG. Dogs were initially fed ¼ can of untreated food to initiate gastric flow. After 15 min, they were then fed at 3 intervals separated by 15 min ⅓ of a can of food that had been mixed with 2.5 g of either untreated or thioredoxin treated BLG. During these intervals dogs were monitored and their GI response assessed. Dogs were then observed and their response recorded at hourly intervals for the next 5 hr.
The digestion response of the food challenged dogs described above was assessed by assigning numbers to the timing, volume and fluidity of vomit induced by feeding. Fluidity: no vomit=0, solid vomit=1, liquid vomit=2, liquid with blood or bile vomit=3. Volume: no vomit=0, small vomit=1 and large vomit=2. Timing: delayed vomit=1, immediate vomit=2.

thioredoxin = thioredoxin (Escherichia coli, UniProt P0AA25)
trypsin = experiment: Trypsin proteolysis of purified milk allergen proteins; format: biochemical; details: 2 μg trypsin
Experimental: The analysis of the reduction was done using the mBBr/SDS-PAGE techniques. Further in this study, when 10 μg of an NTS reduced purified milk allergen protein, β-lactoglobulin (Sigma Chemical Co.), was treated with 2 μg of trypsin, proteolysis was 100% as compared with only 50% for the identically trypsin treated oxidized β-lactoglobulin. […] However, 10 μg of purified […] reduced by the NTS was proteolyzed 80% by trypsin. Also 10 μg of α-lactalbumin reduced by 0.8 μg of thioredoxin and 0.5 mM DTT was 100% proteolyzed by 2 μg of trypsin.

Molecule | Gliadin, % Relative Reduction, Aggregate (proteins not entering the gel) (Gliadins) | Gliadin, % Relative Reduction, α (Gliadins) | Gliadin, % Relative Reduction, β (Gliadins) | Gliadin, % Relative Reduction, γ (Gliadins) | Glutenin, % Relative Reduction, 30-40 kDa (Glutenins; Thioredoxin = 100) | Glutenin, % Relative Reduction, 40-60 kDa (Glutenins; Thioredoxin = 100) | Glutenin, % Relative Reduction, 60-110 kDa (Glutenins; Thioredoxin = 100) | also measured
N[C@@H](CCC(=O)N[C@@H](CS)C(=O)NCC(=O)O)C(=O)O [Glutathione, reduced glutathione, reference compound] | 60.1% | 36.4% | 68.1% | 60.6% |  |  |  | effectiveness in reducing egg white proteins (egg white proteins): ineffective reductant; Glutenin, % Relative Reduction, 30-40 kDa (Glutenins): 29%; Glutenin, % Relative Reduction, 40-60 kDa (Glutenins): 51%; Glutenin, % Relative Reduction, 60-110 kDa (Glutenins): 31%; Relative Reduction (%) (castor seed 2S protein): 0%
Thioredoxin: E. coli thioredoxin reduced by NADPH and NTR | 100.0% | 100.0% | 100.0% | 100.0% | 100% | 100% | 100% | 
Treated: BLG reduced with NADPH, E. coli thioredoxin and NTR |  |  |  |  |  |  |  | time to digestion (pepsin): ≤ 60 s; Upper GI Index (atopic dogs; dog 6GCB1, Treated Exp. A, Control Exp. B): 0; Upper GI Index (atopic dogs; dog 6GCB3, BLG 2.5 g in dog food, Control Exp. A, Treated Exp. B): 0; Upper GI Index (atopic dogs; dog 6GCB4, Treated Exp. A, Control Exp. B): 6; Upper GI Index (atopic dogs; dog 6GCB6, Treated Exp. A, Control Exp. B): 0; Upper GI Index (atopic dogs; dog 6GCB7, Control Exp. A, Treated Exp. B): 3; gastric reflux that disappeared (atopic dogs; repeated feeding trials, on average): about 70%
erabutoxin b: short postsynaptic snake neurotoxin |  |  |  |  |  |  |  | reduction of the toxin (thioredoxin): significantly reduced
B1 |  |  |  |  |  |  |  | proteolysis by trypsin (trypsin; 10 μg oxidized protein): no noticeable proteolysis; proteolysis by trypsin (trypsin; 10 μg protein reduced by 0.8 μg thioredoxin and 0.5 mM DTT): 100%
B2 | 61.5% | 43.5% | 83.3% | 79.7% | 40% | 72% | 50% | 
